Source: US8426429B2, “2-amino-quinazoline derivatives useful as inhibitors of β-secretase (BACE)” (Jansssen Pharmaceutica N.V., priority 2004, dated 2013)
Blank lines part the entries; values can stand above or below the molecule they belong to.

Target: T1, β-secretase (BACE) (Homo sapiens, UniProt P56817)
T1 construct: purchased Panvera
Assay: BACE FS1 % Inhibition Assay
Assay type: biochemical
In short: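 Percent inhibition per compound concentration was referenced to vehicle-treated enzyme and no-enzyme wells. Enzyme at a 4 μg/mL working stock plus compound was mixed for 20 min at room temperature before the FS1 substrate (300 μg/mL working stock) was added for a 1 h room-temperature reaction.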

T1 sequence (P56817 46-501): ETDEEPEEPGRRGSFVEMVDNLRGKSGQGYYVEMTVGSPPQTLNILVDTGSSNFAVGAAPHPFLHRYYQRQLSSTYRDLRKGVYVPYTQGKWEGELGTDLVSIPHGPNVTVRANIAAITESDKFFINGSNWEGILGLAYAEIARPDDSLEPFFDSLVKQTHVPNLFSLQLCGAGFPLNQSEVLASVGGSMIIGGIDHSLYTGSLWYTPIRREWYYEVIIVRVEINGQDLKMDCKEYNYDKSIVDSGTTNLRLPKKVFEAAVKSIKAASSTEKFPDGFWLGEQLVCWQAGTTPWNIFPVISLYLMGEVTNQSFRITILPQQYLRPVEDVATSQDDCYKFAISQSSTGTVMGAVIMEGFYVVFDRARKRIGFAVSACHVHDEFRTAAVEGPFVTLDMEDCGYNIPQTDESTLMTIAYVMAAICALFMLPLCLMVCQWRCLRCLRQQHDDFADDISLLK

SMILES: COc1ccc(Nc2ccc3c(c2)CN(Cc2cccc(C(=O)N(C)C4CCCCC4)c2)C(N)=N3)cc1 [Compound 434]
% Inhibition (FS) (0.3 μM test compound): <30% | % Inhibition (FS) (1 μM test compound): <30% | % Inhibition (FS) (3 μM test compound): <30%

SMILES: NC1=Nc2ccc(Oc3ccccc3)cc2CN1Cc1cccc(C(=O)N2CCC3CCCCC3C2)c1 (stereo not shown) [Compound 193]
% Inhibition (FS) (0.3 μM test compound): <30% | % Inhibition (FS) (1 μM test compound): 34% | % Inhibition (FS) (3 μM test compound): 67%

SMILES: CN(C(=O)c1cccc(CN2Cc3cc(Oc4cccnc4)ccc3N=C2N)c1)C1CCCCC1 [Compound 230]
% Inhibition (FS) (0.3 μM test compound): <30% | % Inhibition (FS) (1 μM test compound): 33% | % Inhibition (FS) (3 μM test compound): <30%

SMILES: CN(C(=O)c1cccc(CN2Cc3cc(Oc4cccc(-c5ccc6ccccc6n5)c4)ccc3N=C2N)c1)C1CCCCC1 [Compound 473]
% Inhibition (FS) (0.3 μM test compound): <30% | % Inhibition (FS) (1 μM test compound): <30% | % Inhibition (FS) (3 μM test compound): <30%

SMILES: CCCC=Cc1ccc2c(c1)CN(CCNC(=O)CCC)C(N)=N2 [Compound 571]
% Inhibition (FS) (0.3 μM test compound): <30% | % Inhibition (FS) (1 μM test compound): <30% | % Inhibition (FS) (3 μM test compound): <30%

SMILES: CC(C)(C)C1CCC(C(=O)NCCN2Cc3cc(Oc4ccccc4)ccc3N=C2N)CC1 (stereo not shown) [Compound 184]
% Inhibition (FS) (0.3 μM test compound): <30% | % Inhibition (FS) (1 μM test compound): <30% | % Inhibition (FS) (3 μM test compound): 31%

SMILES: CC(C)N(C(=O)CCN1Cc2cc(Oc3ccccc3)ccc2N=C1N)C(C)C [Compound 181]
% Inhibition (FS) (0.3 μM test compound): <30% | % Inhibition (FS) (1 μM test compound): <30% | % Inhibition (FS) (3 μM test compound): 32%

SMILES: CC(C)[C@@H](CCC(=O)N(C)C1CCCCC1)N1Cc2cc(Oc3ccccc3)ccc2N=C1N [Compound 444]
% Inhibition (FS) (0.3 μM test compound): <30% | % Inhibition (FS) (1 μM test compound): <30% | % Inhibition (FS) (3 μM test compound): 30%

SMILES: CCCCCCCCCC(=O)NCCN1Cc2cc(Oc3ccccc3)ccc2N=C1N [Compound 142]
% Inhibition (FS) (3 μM test compound): <30% | % Inhibition (FS) (10 μM test compound): 38%

SMILES: CCC(c1cccc(C(=O)N(C2CCCCC2)C2CCCCC2)c1)N1Cc2cc(Oc3ccccc3)ccc2N=C1N (stereo not shown) [Compound 419]
% Inhibition (FS) (0.3 μM test compound): 38% | % Inhibition (FS) (1 μM test compound): 64% | % Inhibition (FS) (3 μM test compound): 109%

SMILES: Cc1cccc(Nc2ccc3c(c2)CN(Cc2cccc(C(=O)N(C)C4CCCCC4)c2)C(N)=N3)c1 [Compound 435]
% Inhibition (FS) (0.3 μM test compound): <30% | % Inhibition (FS) (1 μM test compound): <30% | % Inhibition (FS) (3 μM test compound): 85%

SMILES: CC(C)Oc1ccccc1Oc1ccc2c(c1)CN(Cc1cccc(C(=O)N(C)C3CCCCC3)c1)C(N)=N2 [Compound 478]
% Inhibition (FS) (0.3 μM test compound): <30% | % Inhibition (FS) (1 μM test compound): <30% | % Inhibition (FS) (3 μM test compound): 46%

Next, values leading:

% Inhibition (FS) (0.3 μM test compound): <30% | % Inhibition (FS) (1 μM test compound, 1 µM): 38% | % Inhibition (FS) (3 μM test compound, 3 µM): 78%
SMILES: NC1=Nc2ccc(-c3ccc(F)cc3)cc2CN1CCNC(=O)C1CCCCC1 [Compound 624]

% Inhibition (FS) (0.3 μM test compound, 0.3 µM): 78% | % Inhibition (FS) (1 μM test compound, 1 µM): 113% | % Inhibition (FS) (3 μM test compound, 3 µM): 121%
SMILES: CCCC(CNC(=O)C12CC3CC(CC(C3)C1)C2)N1Cc2cc(Oc3ccccc3)ccc2N=C1N (stereo not shown) [Compound 602]

% Inhibition (FS) (0.3 μM compound, FS1 substrate): <30% | % Inhibition (FS) (1 μM compound, FS1 substrate): 30% | % Inhibition (FS) (3 μM compound, FS1 substrate): <30%
SMILES: NC1=Nc2ccc(-c3cnc4ccccc4c3)cc2CN1CCNC(=O)C1CCCC1 [Compound 671]

% Inhibition (FS) (0.3 μM compound, FS1 substrate): 64% | % Inhibition (FS) (1 μM compound, FS1 substrate): 86%
SMILES: CC(CC(=O)NCCN1Cc2cc(-c3ccccc3Cl)ccc2N=C1N)C(F)(F)F (stereo not shown) [Compound 683]

% Inhibition (FS) (0.3 μM test compound): <30% | % Inhibition (FS) (1 μM test compound): <30% | % Inhibition (FS) (3 μM test compound): 56%
SMILES: NC1=Nc2ccc(-c3ccc(Cl)cc3)cc2CN1CCNC(=O)C1CCCCC1 [Compound 626]

% Inhibition (FS) (0.3 μM compound, FS1 substrate): 14% | % Inhibition (FS) (1 μM compound, FS1 substrate): 28% | % Inhibition (FS) (3 μM compound, FS1 substrate): 61%
SMILES: CN(C(=O)CCC(C)(C)N1Cc2cc(Oc3ccccc3)ccc2N=C1N)C1CCCCC1 [Compound 738]

% Inhibition (FS) (0.3 μM compound, FS1 substrate): 33% | % Inhibition (FS) (1 μM compound, FS1 substrate): <30% | % Inhibition (FS) (3 μM compound, FS1 substrate): 44%
SMILES: CCCCC(CC)C(=O)NCCN1Cc2cc(-c3cnc4ccccc4c3)ccc2N=C1N (stereo not shown) [Compound 676]

% Inhibition (FS) (0.3 μM compound, FS1 substrate): <30% | % Inhibition (FS) (1 μM compound, FS1 substrate): 46% | % Inhibition (FS) (3 μM compound, FS1 substrate): 83%
SMILES: COC1CCCC(C(=O)NCCN2Cc3cc(-c4ccccc4)ccc3N=C2N)C1 (stereo not shown) [Compound 703]
